Experiments:
[1] = tested on: LDL; experiment: Protection against LDL oxidation induced by copper (conjugated diene formation); type: biochemical; settings: for shift in the lag phase latency (delay): LDL oxidation induced by copper, conjugated dienes at 234 nm, relative to control (FIG. 4A); for antioxidant activity on LDL oxidation induced by copper: conjugated diene formation, 30° C., 8 hours
Protocol: LDL were prepared as described in Lebeau et al. (Lebeau, Furman et al. 2000). The solutions of the test compounds were prepared at 10^−2 M in ethanol and diluted in PBS so that the final concentration ranged from 0.1 to 100 μM with a total ethanol concentration of 1% (VN).
Before oxidation, EDTA was removed from the LDL preparation by dialysis. The oxidation reaction was then carried out at 30° C. by adding 100 μl of 16.6 μM CuSO4 to 800 μl of LDL (125 μg protein/ml) and 100 μl of a test compound solution. The formation of dienes, the species to be followed, was measured by the optical density at 234 nm in the samples treated with the compounds in the presence or absence of copper. Optical density at 234 nm was measured every 10 minutes for 8 hours on a thermostated spectrophotometer (Kontron Uvikon 930). The analyses were carried out in triplicate. A compound was considered to have antioxidant activity when it shifted the lag phase latency relative to the control sample. […] FIG. 4 presents an example of the results obtained with the inventive compounds.

[2] = target: T1, Gal4/PPARα (Homo sapiens, UniProt Q07869); experiment: Gal4/PPARα transactivation system in HepG2 cells (luciferase reporter); settings: 24 h, HepG2 cells transfected with Gal4/PPARα plasmids, compound in PC liposomes
T1 sequence (Q07869 239-466 limits assumed): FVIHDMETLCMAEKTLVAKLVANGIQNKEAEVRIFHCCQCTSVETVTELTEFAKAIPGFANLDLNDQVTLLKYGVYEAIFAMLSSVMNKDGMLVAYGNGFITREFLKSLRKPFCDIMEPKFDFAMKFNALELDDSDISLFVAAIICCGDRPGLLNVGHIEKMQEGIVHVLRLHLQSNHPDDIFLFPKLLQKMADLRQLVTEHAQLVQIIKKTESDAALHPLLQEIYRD
Protocol: PPAR activation was tested in vitro in RK13 fibroblast cell lines or in a hematocyte line HepG2 by measuring the transcriptional activity of chimeras composed of the DNA binding domain of the yeast gal4 transcription factor and the ligand binding domain of the different PPARs. The example below is given for HepG2 cells.
HepG2 cells were from ECACC (Porton Down, UK) and were grown in DMEM medium supplemented with 10% (V/V) fetal calf serum, 100 U/ml penicillin (Gibco, Paisley, UK) and 2 mM L-glutamine (Gibco, Paisley, UK). The culture medium was changed every two days. Cells were kept at 37° C. in a humidified 95% air/5% CO2 atmosphere.
HepG2 cells were seeded in 24-well culture dishes at 5×10^4 cells/well and transfected for 2 hours with the reporter plasmid pG5TkpGL3 (50 ng/well), the expression vectors pGal4-f, pGal4-mPPARα, pGal4-hPPARα, pGal4-hPPARγ, or pGal4-hPPARβ (100 ng/well) and the transfection efficiency control vector pRL-CMV (1 ng/well) according to the previously described protocol (Raspe, Madsen et al. 1999), then incubated for 36 hours with the test compounds. At the end of the experiment, the cells were lysed (Gibco, Paisley, UK) and luciferase activity was determined with a Dual-Luciferase™ Reporter Assay System kit (Promega, Madison, Wisc., USA) according to the supplier's instructions. The protein content of the cell extracts was then measured with the Bio-Rad Protein Assay kit (Bio-Rad, Munich, Germany) as directed by the supplier.
The results are expressed as the induction factor (luminescent signal of treated cells divided by luminescent signal of untreated cells) after the different treatments.

[3] = Effects on plasma lipids in rats in vivo; settings: Sprague-Dawley rats, 300 mg/kg/day, intragastric gavage, once a day for 15 days
Protocol: Sprague-Dawley rats weighing 200 to 230 g (Charles River, L'Arbresle, France) were housed in a 12-hour light/dark cycle at a constant temperature of 20±3° C. After a 1-week acclimatization period, rats were weighed and distributed into groups of 8 animals selected such that the distribution of plasma cholesterol and triglyceride levels was uniform. The test compounds were suspended in a vehicle (0.5% carboxymethylcellulose (CMC) and 0.1% Tween) and administered by intragastric gavage at the indicated doses, once a day for 15 days. Animals had access to food and water ad libitum. At the end of the experiments, animals were weighed and sacrificed under anesthesia after a 5-hour fast. Blood was collected on EDTA. Plasma was isolated by centrifugation at 3000 rpm for 20 minutes. […]
Lipid concentrations in plasma (total cholesterol and triglycerides) were determined by a […] assay (Bio-Mérieux, Marcy I'Etoile, France) according to the supplier's instructions. Plasma concentrations of apolipoproteins AII, AI and CIII were determined as previously described (Raspe, Madsen et al. 1999) and (Asset, Staels et al. 1999).
To separate the lipoproteins according to size, 300 μl of plasma were loaded on a Sepharose 6HR 10/30 column (Pharmacia, Uppsala, Sweden) and eluted at a constant flow rate (0.2 ml/minute) in PBS (pH 7.2). Optical density of the eluent was recorded at 280 nm. […]

Row | Compound | melting point | antioxidant activity on LDL oxidation induced by copper [1] | induction factor (luminescent signal of treated cells divided by luminescent signal of untreated cells) ([2]; 5 μM) [fold] | induction factor (luminescent signal of treated cells divided by luminescent signal of untreated cells) ([2]; 15 μM) [fold] | induction factor (luminescent signal of treated cells divided by luminescent signal of untreated cells) ([2]; 50 μM) [fold] | induction factor (luminescent signal of treated cells divided by luminescent signal of untreated cells) ([2]; 100 μM) [fold] | further results
1 | CCCCCCCCCCCCCCCC(=S)OC(CN)CN.Cl.Cl | 224 °C (dec.) |  |  |  |  |  | 
2 | CCCCCCCCCCCCCCCC(=S)SC(CN)CN.Cl.Cl | 181 °C (dec.) |  |  |  |  |  | 
3 | 1,2-(dipalmitoyloxy)-3-tetradecylthioacetylaminopropane [Ex 4] |  | exhibit intrinsic antioxidant properties |  |  |  |  | shift in the lag phase latency (delay) [1]: 34.3%
4 | 1,2-(ditetradecylthioacetyloxy)-3-palmitoylaminopropane [Ex 6] |  | exhibit intrinsic antioxidant properties | 1.1 | 2.2 | 9.6 | 14.5 | 
5 | 1,2-(ditetradecylthioacetyloxy)-3-tetradecylthioacetylaminopropane [Ex 5] |  | exhibit intrinsic antioxidant properties | 1.2 | 2.5 | 7 | 10.5 | 
6 | CCCCCCCCCCCCCCSCC(=O)NCC(O)CO (stereo not drawn) [Ex 2, 3-(tetradecylthioacetylamino)propane-1,2-diol] |  | exhibit intrinsic antioxidant properties | 1.5 | 7.7 | 19.8 | 19.2 | shift in the lag phase latency (delay) [1]: 13.4%
7 | CCCCCCCCCCCCCCCC(=O)NCC(O)CO (stereo not drawn) [Ex 3, 3-(palmitoylamino)propane-1,2-diol] | 104 to 108 °C |  |  |  |  |  | 
8 | CCCCCCCCCCCCCCSCC(=O)NCC(CNC(=O)CSCCCCCCCCCCCCCC)OC(=O)CSCCCCCCCCCCCCCC [Ex 11, 1,3-ditetradecylthioacetylamino-2-(tetradecylthioacetyloxy)propane] |  | exhibit intrinsic antioxidant properties |  |  |  |  | total plasma cholesterol ([3]; D0, D7, D14 (FIG. 3A)): lowered; plasma triglycerides ([3]; D0, D7, D14 (FIG. 3B)): lowered

From patent publication US20060035977A1, “Uses of acylated aminopropanediols and sulphur and nitrogen analogues of same f” (Gentif, priority 2003, published 2006)
